Details: 10 mg/kg adriamycin, intravenous (tail vein) on Days 8, 10 and 12; compared with Vehicle; FIG. 1(A)
Protocol: The presence of weight loss as a side effect of adriamycin encapsulated in the liposome was assessed. […] Each of the drugs was intravenously (tail vein) administered to each mouse group on Days 8, 10 and 12 following the sensitization day (Day 0) (total of three doses). […] The 10 mg/kg (weight) adriamycin is a dose that gives medicinal benefits as a cancer chemotherapeutic agent.
Meanwhile, weight loss as a side effect was also assessed.
Each of the drugs was intravenously (tail vein) administered to each mouse group on Days 8, 10 and 12 following the sensitization day (Day 0) (total of three doses).

## COc1cccc2c1C(=O)c1c(O)c3c(c(O)c1C2=O)C[C@@](O)(C(=O)CO)C[C@@H]3O[C@H]1C[C@H](N)[C@H](O)[C@H](C)O1 [adriamycin]
  weight loss as a side effect: obvious weight loss
